The record followed here is patent US9029531B2 (Agios Pharmaceuticals, Inc., priority 2012, dated 2015).

Structures are written as SMILES. Bounds are passed on as bounds.

The target in the experiment is T1, glutaminase (GAC) (Homo sapiens, UniProt O94925).
T1 sequence (O94925 55-598 isoform O94925-3 limits assumed): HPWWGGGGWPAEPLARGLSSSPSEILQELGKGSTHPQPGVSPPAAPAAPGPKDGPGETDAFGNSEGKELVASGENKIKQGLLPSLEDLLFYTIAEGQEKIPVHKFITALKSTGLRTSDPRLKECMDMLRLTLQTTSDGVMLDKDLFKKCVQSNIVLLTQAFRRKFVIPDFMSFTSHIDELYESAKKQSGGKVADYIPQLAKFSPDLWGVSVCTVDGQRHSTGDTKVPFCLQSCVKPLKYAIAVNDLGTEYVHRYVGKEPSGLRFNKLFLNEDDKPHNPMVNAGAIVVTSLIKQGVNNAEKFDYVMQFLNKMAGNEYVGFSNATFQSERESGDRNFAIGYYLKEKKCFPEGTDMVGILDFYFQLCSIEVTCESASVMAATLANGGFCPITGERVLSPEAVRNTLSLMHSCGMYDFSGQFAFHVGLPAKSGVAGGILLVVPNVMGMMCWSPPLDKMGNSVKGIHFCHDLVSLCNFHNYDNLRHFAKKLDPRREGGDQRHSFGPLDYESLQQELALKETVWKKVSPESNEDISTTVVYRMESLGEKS
The experiment in a line: Glutaminase coupled endpoint enzymatic assay (Example A). In kind it is biochemical. The conditions noted are these: inhibition of glutaminase; assay of Example A or Example B. From the text:
In certain embodiments, exemplary compounds of Formula I include the compounds described in Table 1 and in the Examples. A compound described herein may be tested for its ability to inhibit glutaminase, e.g., by an assay as described in the Examples. For simplicity, the inhibition activity of these compounds is represented as an IC50 tested in an assay of Example A or Example B in Table 1. […] “N/A” refers to compounds wherein the IC50 is unavailable.
In this example, the enzymatic activity of glutaminase is measured through a coupled endpoint assay. Glutamine and phosphate are supplied to GAC at a concentration equal to Km and AC50, respectively, and GAC concentration is adjusted to give a linear reaction for 60 minutes. The glutamate produced is converted to 2-OG by a kinetic excess of glutamate dehydrogenase. This second step is configured for 2×Km for NAD, since excess NAD is inhibitory. However, a kinetic excess of the third coupling enzyme, diaphorase, recycles NAD from NADH to keep the NAD concentration constant during the timecourse of the assay. Diaphorase, also supplied in kinetic excess, oxidizes NADH produced by GDH back to NAD with the concomitant reduction of rezasurin to the highly fluorescent resorufin. Resorufin in measured after the assay is stopped with SDS by Ex544/Em590. A reduction in the signal indicates inhibition of some component of the coupled enzyme system. Prospective hits are counterscreened against GDH/diaphorase alone to remove hits to the coupling enzyme system in a second assay.
2. Buffers • 2× Buffer (300 mM NaCl, 100 mM HEPES pH 8.5, 0.1% BSA, 0.5 mM EDTA, 100 mM sodium phosphate pH 8.5) • 5× Substrate Mix (1× Buffer final concentration, with 13 mM glutamine, 100 μM resazurin, 50 μg/ml diaphorase) • 1.2× Enzyme Mix (1× Buffer final concentration, with 0.875 μg/ml GAC, 1.56 mM NAD, 6.25 units/ml GDH) • Stop Mix (6% SDS in ddH2O) Reaction Procedure • 1. Add 1 μl compound in 100% DMSO • 2. Add 40 μl of Enzyme Mix and incubate for 60 minute at room temperature • 3. Add 10 μl of Substrate Mix to start reaction • 4. Stop reaction with 25 μl of 6% SDS and read Ex544 Em 590

Regarding `COc1nc(CC(=O)Nc2nnc([C@H]3CCC[C@H](c4nnc(NC(=O)Cc5csc(OC)n5)s4)C3)s2)cs1` [Compound 279, N,N′-(5,5′-((1S,3S)-cyclohexane-1,3-diyl)bis(1,3,4-thiadiazole-5,2-diyl))bis(2-(2-methoxythiazol-4-yl)acetamide)], the IC50 (commonly the concentration that gives 50% inhibition) was under 100 nM.
The figure for `O=C(Cc1ccccn1)Nc1nnc([C@@H]2CC[C@@H](c3nnc(NC(=O)Cc4ccccn4)s3)C2)s1` [Compound 33] is under 100 nM.
As for `COc1ccccc1CC(=O)Nc1nnc([C@H]2CCC[C@H](c3nnc(NC(=O)Cc4ccccn4)s3)C2)s1` [Compound 79, 2-(2-methoxyphenyl)-N-(5-((1S,3S)-3-(5-(2-(pyridin-2-yl)acetamido)-1,3,4-thiadiazol-2-yl)cyclohexyl)-1,3,4-thiadiazol-2-yl)acetamide], the figure is under 100 nM.
In turn, `NC(=O)c1ccc(CC(=O)Nc2nnc([C@H]3CCC[C@H](c4nnc(NC(=O)Cc5ccc(C(N)=O)cn5)s4)C3)s2)nc1` [Compound 242] displayed a half-maximal inhibitory concentration (IC50) of under 100 nM.
`O=C(Cc1cscn1)Nc1nnc([C@H]2CCC[C@H](c3nnc(NC(=O)Cc4cscn4)s3)C2)s1` [Compound 222, N,N′-(5,5′-((1S,3S)-cyclohexane-1,3-diyl)bis(1,3,4-thiadiazole-5,2-diyl))bis(2-(thiazol-4-yl)acetamide)] came in with an IC50 of under 100 nM.
As for `COc1ccnc(CC(=O)Nc2nnc([C@H]3CC[C@H](c4nnc(NC(=O)Cc5cc(OC)ccn5)s4)C3)s2)c1` [Compound 287], the figure is under 100 nM.
As for `CN(C)c1ccc(CC(=O)Nc2nnc([C@H]3CCC[C@H](c4nnc(NC(=O)Cc5ccc(N(C)C)cn5)s4)C3)s2)nc1` [Compound 241, N,N′-(5,5′-((1S,3S)-cyclohexane-1,3-diyl)bis(1,3,4-thiadiazole-5,2-diyl))bis(2-(5-(dimethylamino)pyridin-2-yl)acetamide)], the figure is under 100 nM.
`O=C(Cc1cccc(N2CC(F)(F)C2)n1)Nc1nnc([C@H]2CCC[C@H](c3nnc(NC(=O)Cc4cccc(N5CC(F)(F)C5)n4)s3)C2)s1` [Compound 268, N,N′-(5,5′-((1S,3S)-cyclohexane-1,3-diyl)bis(1,3,4-thiadiazole-5,2-diyl))bis(2-(6-(3,3-difluoroazetidin-1-yl)pyridin-2-yl)acetamide)]: the IC50 is under 100 nM.
As for `CNc1nc(CC(=O)Nc2nnc([C@H]3CCC[C@H](c4nnc(NC(=O)Cc5csc(NC)n5)s4)C3)s2)cs1` [Compound 275, N,N′-(5,5′-((1S,3S)-cyclohexane-1,3-diyl)bis(1,3,4-thiadiazole-5,2-diyl))bis(2-(2-(methylamino)thiazol-4-yl)acetamide)], the figure is under 100 nM.
As for `COc1ccc(CC(=O)Nc2nnc(C3CCCCC(c4nnc(NC(=O)Cc5ccc(OC)cc5)s4)C3)s2)cc1` (centres unmarked) [Compound 121], the figure is 1000 to 2000 nM.
The figure for `O=C(Cc1cc(N2CC(F)(F)C2)ccn1)Nc1nnc([C@H]2CCC[C@H](c3nnc(NC(=O)Cc4cc(N5CC(F)(F)C5)ccn4)s3)C2)s1` [Compound 258, N,N′-(5,5′-((1S,3S)-cyclohexane-1,3-diyl)bis(1,3,4-thiadiazole-5,2-diyl))bis(2-(4-(3,3-difluoroazetidin-1-yl)pyridin-2-yl)acetamide)] is 100 to 500 nM.
`COc1ccc(CC(=O)Nc2nnc([C@@H]3CCC[C@@H](c4nnc(NC(=O)Cc5ccc(OC)cc5)s4)C3)s2)cc1` (stereo in doubt) [Compound 52, N,N′-(5,5′-((1S,3S)-cyclohexane-1,3-diyl)bis(1,3,4-thiadiazole-5,2-diyl))bis(2-(4-methoxyphenyl)acetamide)] displayed a 50% inhibitory concentration (IC50) of under 100 nM.
As for `O=C(Cc1cc(N2CCC2)ccn1)Nc1nnc([C@H]2CCC[C@H](c3nnc(NC(=O)Cc4cc(N5CCC5)ccn4)s3)C2)s1` [Compound 254, N,N′-(5,5′-((1S,3S)-cyclohexane-1,3-diyl)bis(1,3,4-thiadiazole-5,2-diyl))bis(2-(4-(azetidin-1-yl)pyridin-2-yl)acetamide)], the figure is 100 to 500 nM.
As for `O=C(Cc1cccc(N2CCCC2)c1)Nc1nnc([C@H]2CCC[C@H](c3nnc(NC(=O)Cc4cccc(N5CCCC5)c4)s3)C2)s1` [Compound 260, N,N′-(5,5′-((1S,3S)-cyclohexane-1,3-diyl)bis(1,3,4-thiadiazole-5,2-diyl))bis(2-(3-(pyrrolidin-1-yl)phenyl)acetamide)], the figure is 100 to 500 nM; as for `O=C(Cc1ccccc1[N+](=O)[O-])Nc1nnc([C@H]2CCC[C@H](c3nnc(NC(=O)Cc4ccccc4[N+](=O)[O-])s3)C2)s1` [Compound 57, N,N′-(5,5′-((1S,3S)-cyclohexane-1,3-diyl)bis(1,3,4-thiadiazole-5,2-diyl))bis(2-(2-nitrophenyl)acetamide)], 100 to 500 nM; as for `CN(C)c1cccc(CC(=O)Nc2nnc([C@H]3CC[C@H](c4nnc(NC(=O)Cc5cccc(N(C)C)n5)s4)C3)s2)n1` [Compound 289, N,N′-(5,5′-((1S,3S)-cyclopentane-1,3-diyl)bis(1,3,4-thiadiazole-5,2-diyl))bis(2-(6-(dimethylamino)pyridin-2-yl)acetamide)], 100 to 500 nM.
The figure for `COc1ccccc1CC(=O)Nc1nnc([C@H]2CCC[C@H](c3nnc(NC(C)=O)s3)C2)s1` [Compound 94, N-(5-((1S,3S)-3-(5-acetamido-1,3,4-thiadiazol-2-yl)cyclohexyl)-1,3,4-thiadiazol-2-yl)-2-(2-methoxyphenyl)acetamide] is under 100 nM.
For the molecule `CC(=O)Nc1nnc([C@H]2CCC[C@H](c3nnc(NC(=O)Cc4ccc(N5CC(F)(F)C5)cn4)s3)C2)s1` [Compound 253, N-(5-((1S,3S)-3-(5-acetamido-1,3,4-thiadiazol-2-yl)cyclohexyl)-1,3,4-thiadiazol-2-yl)-2-(5-(3,3-difluoroazetidin-1-yl)pyridin-2-yl)acetamide], the concentration for half-maximal inhibition (IC50) was 100 to 500 nM.
As for `CCOc1ccnc(CC(=O)Nc2nnc([C@H]3CCC[C@H](c4nnc(NC(=O)Cc5cc(OCC)ccn5)s4)C3)s2)c1` [Compound 247, N,N′-(5,5′-((1S,3S)-cyclohexane-1,3-diyl)bis(1,3,4-thiadiazole-5,2-diyl))bis(2-(4-ethoxypyridin-2-yl)acetamide)], the figure is under 100 nM; as for `COc1ccccc1CC(=O)Nc1nnc(C2CCC(c3nnc(NC(=O)Cc4ccccc4OC)s3)C2)s1` (centres unmarked) [Compound 67], 100 to 500 nM.
Regarding `O=C(Cc1ccc(N2CC(F)(F)C2)cn1)Nc1nnc([C@H]2CCC[C@H](c3nnc(NC(=O)Cc4ccc(N5CC(F)(F)C5)cn4)s3)C2)s1` [Compound 252, N,N′-(5,5′-((1S,3S)-cyclohexane-1,3-diyl)bis(1,3,4-thiadiazole-5,2-diyl))bis(2-(5-(3,3-difluoroazetidin-1-yl)pyridin-2-yl)acetamide)], the IC50 is under 100 nM.
As for `CS(=O)(=O)Nc1ccc(CC(=O)Nc2nnc([C@H]3CCC[C@H](c4nnc(NC(=O)Cc5ccc(NS(C)(=O)=O)cc5)s4)C3)s2)cc1` [Compound 238, N,N′-(5,5′-((1S,3S)-cyclohexane-1,3-diyl)bis(1,3,4-thiadiazole-5,2-diyl))bis(2-(4-(methylsulfonamido)phenyl)acetamide)], the figure is under 100 nM; as for `CNc1cccc(CC(=O)Nc2nnc([C@H]3CCC[C@H](c4nnc(NC(=O)Cc5cccc(NC)c5)s4)C3)s2)c1` [Compound 264, N,N′-(5,5′-((1S,3S)-cyclohexane-1,3-diyl)bis(1,3,4-thiadiazole-5,2-diyl))bis(2-(3-(methylamino)phenyl)acetamide)], under 100 nM.
`Nc1nnc([C@@H]2CCC[C@@H](c3nnc(NC(=O)Cc4ccccn4)s3)C2)s1` [Compound 58]: the 50% inhibitory concentration (IC50) was in the range of 1000 to 2000 nM.
`O=C(Cc1cccc(N2CC(F)(F)C2)n1)Nc1nnc([C@H]2CCC[C@H](c3nnc(NC(=O)C4CC4)s3)C2)s1` [Compound 283] displayed an IC50 of 100 to 500 nM.
The figure for `N#Cc1ccccc1CC(=O)Nc1nnc(C2CCC(c3nnc(NC(=O)Cc4ccccc4C#N)s3)C2)s1` (centres unmarked) [Compound 95] is 100 to 500 nM.
